Data published in patent publication EP0577143A2, “Solid and liquid solutions of flavonoids” (ALFATEC-PHARMA GmbH, priority 1992, dated 1994).

Test: Clinical bioavailability study: renal excretion of flavones over 24 h after oral rutin
Type: in vivo, gesunden Probanden
Details: Rutin molecularly dispersed in gelatin, taken by volunteers
Source text: Die nahrungsbedingte Flavonausscheidung wurde dabei berücksichtigt und durch entsprechende Diätvorschriften möglichst gering gehalten.
Die Analytik und Identifikation der Flavonausscheidungen kann z.B. wie folgt durchgeführt werden: • 1. Saure Spaltung ( 1 M Salzsäure) der in biologischen Flüssigkeiten (Urin) enthaltenen Flavonkonjugate. • 2. Festphasenextraktion mit Methanol zur Anreicherung der freigesetzten Flavone (z.B. Extrelut^R, Fa. Merck). • 3. HPLC-Analytik mit Diodenarray-Detektion und Identifizierung einzelner Flavone, zusätzlich elektrochemische Identifikation (anodisches Oxidationspotential).
Die Empfindlichkeit der genannten Analytik ist >10 ng Flavon pro ml.

Structure (SMILES): C[C@@H]1O[C@@H](OC[C@H]2O[C@@H](Oc3c(-c4ccc(O)c(O)c4)oc4cc(O)cc(O)c4c3=O)[C@H](O)[C@@H](O)[C@@H]2O)[C@H](O)[C@H](O)[C@H]1O [Rutin]
- Metaboliten in vivo: Quercetin, Kämpferol und Isorhamnetin
